Consider two compounds from patent US8795659B2 (priority 2004, dated 2014).

The subject of this data set is Lewis Lung Carcinoma. The settings on record: mouse, in vivo, ip.

In the case of `O=P1(N(CCCl)CCCl)NCCCO1` (centres unmarked) [Cyclophosphamide, cyclophosphamide], the “% ILS (excluding survivors)” value stood at 68%, the Highest non-toxic dosage is given as 200, the “T-C (tumor growth delay to 750 mg)” value stood at 27 days and the tumor free survivors is on record as 5/10.
On to `O=P1(NCCCl)OCCCN1CCCl` (centres unmarked) [Ifosfamide], for which the “% ILS (excluding survivors)” value turned out to be 55%, the Highest non-toxic dosage was found to be 300, the “T-C (tumor growth delay to 750 mg)” value was 18 days and the tumor free survivors is recorded as 7/10.
